Reference: patent US9796674B2, “Benzyl urea derivatives for activating TGF-beta signaling” (THE BOARD OF TRUSTEES OF THE LELAND STANFORD JUNIOR …, priority 2013, dated 2017)

Key:
[1] = test system: B103 neuroblastoma cells; experiment: B103 live/dead cell assay with Aβ; type: cell-based, rat; conditions: for cell survival, protection relative to TGF-β1: percentage of live cells / percentage of rescue
Method: SRI-11381 is neuroprotective in vitro: To determine if the TGF-β-inducing capacity of SRI-011381 would translate into biologically beneficial effects, its neuroprotective potential was tested in B103 rat neuroblastoma cells and primary mouse neurons derived from E16 forebrains. B103 neuroblastoma cells were cultured in 24-well plates and exposed to an oligomeric preparation of Aβ together with compounds or recombinant TGF-β.
FIGS. 3A-3H illustrate that SRI-011381 protects cultured neurons from Aβ toxicity. B103 neuroblastoma cells were incubated with Aβ for 24 h. The compounds and TGF-β were added 2 h before Aβ. Following incubations live and dead cells were assessed with calcein-acetoxymethylester (CAM) and SYTOX Orange (Invitrogen), respectively.
B103 neuroblastoma cells: B103 neuroblastoma cells were cultured in Dulbecco's modified Eagle's medium containing 10% fetal calf serum and 1% v/v penicillin/streptomycin (Invitrogen) in a 5% CO2: 95% air atmosphere. 10^4 cells/well were seeded onto 24 well plates and cultured for 24 h before Aβ was added. The compounds and TGF-β were added 2 h before Aβ. Following a 24 h incubation with Aβ, live and dead cells were assessed using calcein-acetoxymethylester (CAM) and SYTOX Orange (Invitrogen), respectively. AM is a membrane-permeable, fluorogenic esterase substrate that is hydrolyzed intracellularly to a green fluorescent product (calcein) in live cells. SYTOX Orange is a high-affinity nucleic acid stain that easily penetrates cells with compromised plasma membranes and yet will not cross the membranes of live cells. After incubation with SYTOX Orange, the nucleic acids of dead cells fluoresce bright orange. […] Five fields were randomly selected from each well and the cell numbers were analyzed by ImageJ (NIH) in a blinded fashion.

[2] = test system: hippocampal neurons; experiment: Aβ-induced neuritic dystrophy in primary hippocampal neurons; type: cell-based, mouse; conditions: for average numbers of dystrophic neurites per neuron: 21-22 DIV
Method: Primary hippocampal neurons isolated from E16 CF1 embryos were aged for 6-7 days or 21-22 days, then challenged with 5 μM oligomeric Aβ in the presence or absence of compounds, and assayed for neurotoxicity (cell survival as above) or neuritic dystrophy, respectively. For quantification of neuritic dystrophy, fixed cells were immune-stained with a MAP-2 monoclonal antibody to label dendrites.
Primary hippocampal neurons were isolated from E16 CF1 embryos. Twenty-four-well culture plates were coated with 10 μg/ml poly-L-lysine. Cells were seeded overnight at a density of 30,000 cells/well in DMEM/F-12 medium supplemented with 10% FBS and penicillin/streptomycin, and subsequently maintained in Neurobasal medium containing 2% B27 supplement. Cells were aged for 6-7 days or 21-22 days, then challenged with 5 μM Aβ in the presence or absence of compounds, and assayed for neurotoxicity or neuritic dystrophy, respectively. Cells were treated for 72 h for neurotoxicity assay and 48 h for neuritic dystrophy assay. At the end of treatment, an equal volume of 4% PFA was added, plates incubated at room temperature for 15 min and then washed three times with DPBS. Cells were kept in the last wash of DPBS at 4° C. until being counted or stained.
For quantification of neuritic dystrophy, fixed cells were immunostained with a MAP-2 monoclonal antibody (Sigma-Aldrich). […] MAP2 positive dendrites were observed under an inverted fluorescence microscope (Olympus). […] To quantify neurite curvature, an established method was modified for assessment of neurite curvature. Neurite tracks were digitized and approximated by a series of connected line segments using ImageJ (NIH). The angle of each segment was determined using a Sigmaplot macro, and the results were averaged to give the ‘mean differential curvature’. This parameter reflects the degree of neurite curvature with an increasing value indicating increased curvature. Neurite counting and quantification were performed in randomly selected fields (5 fields/well). All quantitative assessments were done by investigators blinded with respect to treatment conditions.

[3] = Metabolic stability in human liver microsomes; type: in vitro ADME
Method: Metabolic Stability: SRI-011381 (1 and 10 μM) was incubated with human liver microsomes (pooled from several donors) and cofactors.

[4] = test system: primary rat hepatocytes; experiment: Cytotoxicity in primary rat hepatocytes; type: cell-based; conditions: 20 h
Method: (§1) In Vitro Cytotoxicity: The cytotoxicity of SRI-011381 was determined in primary rat hepatocytes and in VERO cells.
Rat hepatocytes were isolated by collagenase perfusion and allowed to form a monolayer overnight. The test compounds were added to the cells in 5 concentrations up to 250 μM. Cells were incubated with the test article for 20 h and then toxicity determined by the MTT cytotoxicity screen. Toxicity was evaluated against the vehicle control (DMSO) and a positive control, amitriptylin, was included with each experiment.

[5] = Cytotoxicity in VERO cells; type: cell-based; conditions: African green monkey, read-out: LC50 (the source's name)
Method: as §1
Cytotoxicity: In vitro cytotoxicity assays are used to estimate the relative toxicity of test compounds, e.g. a set of chemical analogs prior to efficacy screening. To estimate “basal” toxicity, a cell line such as VERO cells are typically used. Additional factors including drug metabolism can alter the relative toxicity of a compound in vivo. Primary cultures from liver (either laboratory species or human) can be used to assess the relative toxicity of compounds where metabolism may be a factor.

[6] = Dose escalation and 14-day MTD study in female FVB mice; type: in vivo; conditions: female, FVB, mouse, in vivo; daily oral dose for 14 days
Method: In Vivo Range Finding Toxicity Studies in Mice and Rats: Dose escalation and 14-day MTD study of SRI-011381 and SRI-011382 in female FVB mice: The objectives of this study were to determine the maximum tolerated dose (MTD) and a no observable adverse effect level (NOAEL) in female FVB mice following a daily oral dose administration for 14 consecutive days. An initial dose escalation was performed with intraperitoneal (ip), oral (po), and intravenous (iv) dose routes for a single-dose MTD of SRI-011381 and SRI-011382.
Subsequently, three dose levels (10, 30, and 75 mg/kg) and a vehicle control group were used in the 14-day oral dose administration to determine the MTD and NOAEL based on changes in bodyweight, clinical observations, serum chemistry, hematology and gross organ physiology in 5 female mice per treatment group.
The objectives of this study were to determine maximum tolerated dose (MTD) and a no observable adverse effect level (NOAEL) in female FVB mice following a daily oral dose administration for 14 consecutive days. After a dose escalation single dose study with doses up to 400 mg/kg, three dose levels were selected for the repeat dose study, 10, 30 and 75 mg/kg, administered […]. The MTD is the maximum dose administered that results in less than 10% body weight loss compared to controls and no other dose limiting adverse effects (e.g. clinical pathology).

## O=C(NC1CCCCC1)N(Cc1ccccc1)CC1CCNCC1 [SRI-011381, 1-Benzyl-3-cyclohexyl-1-(piperidin-4-ylmethyl)urea]
[1]
  cell survival, protection relative to TGF-β1: better protection than TGF-β1
[2]; 5 μM Aβ, 48 h
  average numbers of dystrophic neurites per neuron: markedly reduced
[3]; 1 and 10 μM, after 60 min
  compound unchanged: Approximately 80%
[4]; rat hepatocytes, MTT
  LD50: greater than 250 μM
[5]
  CC50: 167 µM
[6]
  NOAEL at 14 days: < 30 mg/kg

## O=C(NC1CCCCC1)N(C/C=C/c1ccc(F)cc1)CC1CCNCC1 [SRI-011382]
[1]; 1 μM, 5 μM Aβ
  cell survival, protection: slightly lower protection
[1]; 3 μM, TGF-β 1 ng/ml
  cell survival, protection relative to TGF-β: better protection than TGF-β
[1]; Aβ 24 h, added 2 h before Aβ
  Aβ-induced cell death: inhibit Aβ-induced cell death
[1]
  cell survival, protection relative to TGF-β1: better protection than TGF-β1
[2]
  Aβ-induced increase in neurite curvature (mean differential curvature): prevented
[2]; 3 μM compound, 5 μM Aβ, 48 h
  Aβ-induced tortuosity: markedly reduced
[2]; 5 μM Aβ, 48 h
  average numbers of dystrophic neurites per neuron: markedly reduced
[3]
  metabolic stability: desirable level of metabolic stability
[4]; rat, 50 μM
  cytotoxicity in rat hepatocytes: cytotoxic at 50 μM
